Measurements taken from patent US9095138B2, “Isoxazoline insecticides” (E.I. du Pont de Nemours and Company, priority 2007, dated 2015).

How the values were obtained:
[1] = tested on: diamondback moth (Plutella xylostella); experiment: Test A: control of diamondback moth on radish plant, foliar spray; format: in vivo; conditions: sprayed at 50 ppm; neonate larvae on radish; assessed after 6 days; replicated three times
Source text: For evaluating control of diamondback moth (Plutella xylostella) the test unit consisted of a small open container with a 12-14-day-old radish plant inside. This was pre-infested with about 50 neonate larvae that were dispensed into the test unit via corn-cob grits using a bazooka inoculator. The larvae moved onto the test plant after being dispensed into the test unit.
(§1) Test compounds were formulated using a solution containing 10% acetone, 90% water and 300 ppm X-77™ Spreader Lo-Foam Formula non-ionic surfactant containing alkylarylpolyoxyethylene, free fatty acids, glycols and isopropanol (Loveland Industries, Inc. Greeley, Colo., USA). The formulated compounds were applied in 1 mL of liquid through a SUJ2 atomizer nozzle with ⅛ JJ custom body (Spraying Systems Co. Wheaton, Ill., USA) positioned 1.27 cm (0.5 inches) above the top of each test unit. All experimental compounds in these tests were sprayed at 50 ppm, and the test was replicated three times. After spraying of the formulated test compound, each test unit was allowed to dry for 1 h and then a black, screened cap was placed on top. The test units were held for 6 days in a growth chamber at 25° C. and 70% relative humidity. Plant feeding damage was then visually assessed based on foliage consumed and a pest mortality rating was also counted and calculated for each test unit.

[2] = tested on: western flower thrips (Frankliniella occidentalis); experiment: Test E: control of western flower thrips on Soleil bean plant, contact and/or systemic; format: in vivo; conditions: adult thrips, assessed after 6 days, replicated three times
Procedure: as §1
For evaluating control of the western flower thrips (Frankliniella occidentalis) through contact and/or systemic means, the test unit consisted of a small open container with a 5-7 day old Soleil Bean plant inside. Test compounds were formulated and sprayed as described for Test A. All experimental compounds in these tests were sprayed at 250 or 50 ppm as noted, and the test was replicated three times. After spraying, the test units were allowed to dry for 1 hour and then 22-27 adult thrips were added to each unit and then a black, screened cap was placed on top. The test units were held for 6 days at 25° C. and 45-55% relative humidity. A mortality rating was assessed along with a plant damage rating for each test unit.

Compound | control efficacy (feeding damage or mortality): very good to excellent levels [1] | control efficacy (feeding damage or mortality): very good to excellent levels ([2]; sprayed at 50 ppm) | control efficacy (feeding damage or mortality): very good to excellent levels ([2]; sprayed at 250 ppm)
O=C(CNC(=O)c1ccc(C2=NOC(c3cccc(OC(F)(F)F)c3)(C(F)(F)F)C2)c2ccccc12)NCc1ccccn1 (stereo not drawn) [Compound 59] | 20% or less feeding damage or 80% or more mortality |  | 
CC(C)(NC(=O)c1ccc(C2=NOC(c3cc(Cl)cc(Cl)c3)(C(F)(F)F)C2)c2ccccc12)C(=O)NCC1CC1 (stereo not drawn) [Compound 43] | 20% or less feeding damage or 80% or more mortality | 20% or less feeding damage or 80% or more mortality | 20% or less feeding damage or 80% or more mortality
O=C(O)[C@@H]1CCCN1C(=O)c1ccc(C2=NOC(c3cc(Cl)cc(Cl)c3)(C(F)(F)F)C2)c2ccccc12 (stereo partly drawn) [Compound 99] | 20% or less feeding damage or 80% or more mortality |  | 
O=C(CNC(=O)c1ccc(C2=NOC(c3cc(Cl)cc(Cl)c3)(C(F)(F)F)C2)c2ccccc12)Nc1ccc(C(F)(F)F)cc1 (stereo not drawn) [Compound 46] | 20% or less feeding damage or 80% or more mortality |  | 
COC(=O)[C@@H]1CCCN1C(=O)c1ccc(C2=NOC(c3cc(Cl)cc(Cl)c3)(C(F)(F)F)C2)c2ccccc12 (stereo partly drawn) [Compound 97] | 20% or less feeding damage or 80% or more mortality |  | 
O=C(NC(C(=O)O)c1ccccc1)c1ccc(C2=NOC(c3cc(Cl)cc(Cl)c3)(C(F)(F)F)C2)c2ccccc12 (mixture of isomers) [Compound 5] | 20% or less feeding damage or 80% or more mortality |  | 
O=C(O)CNC(=O)c1ccc(C2=NOC(c3cc(Cl)cc(OC(F)(F)F)c3)(C(F)(F)F)C2)c2ccccc12 (racemic) [Compound 34] | 20% or less feeding damage or 80% or more mortality |  | 
CC(C)(NC(=O)c1ccc(C2=NOC(c3cc(Cl)cc(Cl)c3)(C(F)(F)F)C2)c2ccccc12)C(=O)O (racemic) [Compound 6] | 20% or less feeding damage or 80% or more mortality | 20% or less feeding damage or 80% or more mortality | 20% or less feeding damage or 80% or more mortality
O=C(O)CNC(=O)c1ccc(C2=NOC(c3cc(Cl)c(Cl)c(Cl)c3)(C(F)(F)F)C2)c2ccccc12 (racemic) [Compound 8] | 20% or less feeding damage or 80% or more mortality |  | 20% or less feeding damage or 80% or more mortality
O=C(O)CNC(=O)c1ccc(C2=NOC(c3cc(Cl)cc(C(F)(F)F)c3)(C(F)(F)F)C2)c2ccccc12 (racemic) [Compound 26] | 20% or less feeding damage or 80% or more mortality |  | 20% or less feeding damage or 80% or more mortality
CCNC(=O)[C@@H]1CCCN1C(=O)c1ccc(C2=NOC(c3cc(Cl)cc(Cl)c3)(C(F)(F)F)C2)c2ccccc12 (stereo partly drawn) [Compound 105] | 20% or less feeding damage or 80% or more mortality |  | 
CC(NC(=O)c1ccc(C2=NOC(c3cc(Cl)cc(OC(F)(F)F)c3)(C(F)(F)F)C2)c2ccccc12)C(=O)O (mixture of isomers) [Compound 35] | 20% or less feeding damage or 80% or more mortality |  | 
O=C(CNC(=O)c1ccc(C2=NOC(c3cc(Cl)cc(Cl)c3)(C(F)(F)F)C2)c2ccccc12)NCc1ccccn1 (stereo not drawn) [Compound 45] | 20% or less feeding damage or 80% or more mortality |  | 20% or less feeding damage or 80% or more mortality
O=C(O)CNC(=O)c1ccc(C2=NOC(c3cc(Br)cc(C(F)(F)F)c3)(C(F)(F)F)C2)c2ccccc12 (racemic) [Compound 23] | 20% or less feeding damage or 80% or more mortality |  | 
O=C(NCC(=O)N1CCCCC1)c1ccc(C2=NOC(c3cc(Cl)cc(Cl)c3)(C(F)(F)F)C2)c2ccccc12 (stereo not drawn) [Compound 89] | 20% or less feeding damage or 80% or more mortality |  | 20% or less feeding damage or 80% or more mortality
CC(NC(=O)c1ccc(C2=NOC(c3cc(Cl)cc(OCC(F)(F)F)c3)(C(F)(F)F)C2)c2ccccc12)C(=O)O (mixture of isomers) [Compound 37] | 20% or less feeding damage or 80% or more mortality |  | 

Compound | control efficacy (feeding damage or mortality): very good to excellent levels [1] | control efficacy (feeding damage or mortality): very good to excellent levels ([2]; sprayed at 50 ppm) | control efficacy (feeding damage or mortality): very good to excellent levels ([2]; sprayed at 250 ppm)
CC(C)[C@@H](NC(=O)c1ccc(C2=NOC(c3cc(C(F)(F)F)cc(C(F)(F)F)c3)(C(F)(F)F)C2)c2ccccc12)C(=O)O (stereo partly drawn) [Compound 39] | 20% or less feeding damage or 80% or more mortality |  | 
CSCCNC(=O)CNC(=O)c1ccc(C2=NOC(c3cccc(Br)c3)(C(F)(F)F)C2)c2ccccc12 (stereo not drawn) [Compound 57] | 20% or less feeding damage or 80% or more mortality |  | 
O=C(CNC(=O)c1ccc(C2=NOC(c3cc(F)cc(F)c3)(C(F)(F)F)C2)c2ccccc12)NC1CC1 (stereo not drawn) [Compound 62] | 20% or less feeding damage or 80% or more mortality |  | 
COC(=O)[C@H]1CCCN1C(=O)c1ccc(C2=NOC(c3cc(Cl)cc(Cl)c3)(C(F)(F)F)C2)c2ccccc12 (stereo partly drawn) [Compound 98] | 20% or less feeding damage or 80% or more mortality |  | 20% or less feeding damage or 80% or more mortality
CSCCNC(=O)CNC(=O)c1ccc(C2=NOC(c3cc(Cl)cc(Cl)c3)(C(F)(F)F)C2)c2ccccc12 (stereo not drawn) [Compound 48] | 20% or less feeding damage or 80% or more mortality |  | 20% or less feeding damage or 80% or more mortality
O=C(O)CNC(=O)c1ccc(C2=NOC(c3cc(Cl)cc(Cl)c3)(C(F)(F)F)C2)c2ccccc12 (racemic) [Compound 12] | 20% or less feeding damage or 80% or more mortality |  | 
CC(C)=NOC(=O)CNC(=O)c1ccc(C2=NOC(c3cc(C(F)(F)F)cc(C(F)(F)F)c3)(C(F)(F)F)C2)c2ccccc12 (racemic) [Compound 25] | 20% or less feeding damage or 80% or more mortality |  | 
O=C(CNC(=O)c1ccc(C2=NOC(c3cccc(F)c3)(C(F)(F)F)C2)c2ccccc12)NC1CC1 (stereo not drawn) [Compound 63] | 20% or less feeding damage or 80% or more mortality |  | 
CCNC(=O)[C@H]1CCCN1C(=O)c1ccc(C2=NOC(c3cc(Cl)cc(Cl)c3)(C(F)(F)F)C2)c2ccccc12 (stereo partly drawn) [Compound 106] | 20% or less feeding damage or 80% or more mortality | 20% or less feeding damage or 80% or more mortality | 20% or less feeding damage or 80% or more mortality
CCS(=O)(=O)N1CCN(C(=O)CNC(=O)c2ccc(C3=NOC(c4cccc(C(F)(F)F)c4)(C(F)(F)F)C3)c3ccccc23)CC1 (stereo not drawn) [Compound 92] | 20% or less feeding damage or 80% or more mortality |  | 
CN(CCCNC(=O)c1ccc(C2=NOC(c3cc(Cl)cc(Cl)c3)(C(F)(F)F)C2)c2ccccc12)C(=O)OC(C)(C)C (racemic) [Compound 3] | 20% or less feeding damage or 80% or more mortality | 20% or less feeding damage or 80% or more mortality | 20% or less feeding damage or 80% or more mortality
O=C([O-])CNC(=O)c1ccc(C2=NOC(c3cc(Cl)cc(Cl)c3)(C(F)(F)F)C2)c2ccccc12.[Na+] (racemic) [Compound 13] | 20% or less feeding damage or 80% or more mortality |  | 
O=C(O)CCNC(=O)c1ccc(C2=NOC(c3cc(Cl)cc(Cl)c3)(C(F)(F)F)C2)c2ccccc12 (racemic) [Compound 7] | 20% or less feeding damage or 80% or more mortality |  | 
CS(=O)(=O)NC(=O)c1ccc(C2=NOC(c3cc(Cl)cc(Cl)c3)(C(F)(F)F)C2)c2ccccc12 (racemic) [Compound 10] | 20% or less feeding damage or 80% or more mortality |  | 
CNC(=O)[C@@H]1CCCN1C(=O)c1ccc(C2=NOC(c3cc(Cl)cc(Cl)c3)(C(F)(F)F)C2)c2ccccc12 (stereo partly drawn) [Compound 103] | 20% or less feeding damage or 80% or more mortality |  | 
